Activity calls are given as the source filed them. The rule behind the calls is not given here.

For orientation: IC50 means the concentration that gives 50% inhibition. By Kd is commonly meant the equilibrium constant for the complex coming apart. Read a low Kd as tighter binding.

Series [1] concerns the target T1, GTPase HRas (Homo sapiens, UniProt P01112). The series is described as follows: Inhibition of recombinant N-terminal His-tagged H-Ras (unknown origin) expressed in Escherichia coli M15 assessed as inhibition of GEF-mediated nucleotide exchange after 300 secs by luminescence spectrophotometry.
Target sequence in this assay (P01112 whole entry): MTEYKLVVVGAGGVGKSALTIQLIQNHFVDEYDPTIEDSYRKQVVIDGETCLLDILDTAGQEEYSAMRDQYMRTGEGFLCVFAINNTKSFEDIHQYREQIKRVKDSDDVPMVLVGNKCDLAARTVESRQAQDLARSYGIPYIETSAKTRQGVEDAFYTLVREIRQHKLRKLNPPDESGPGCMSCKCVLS
In series [2] the test system is NIH3T3. The series is described as follows: Inhibition of cell proliferation in mouse NIH/3T3 cells expressing K-RAS at 100 uM after 24 to 72 hrs by coulter counting analysis. It counts as functional, cell-based.
Series [3] concerns the target T1, GTPase HRas. Put plainly: Binding affinity to [15N]-H-Ras (1 to 166) (unknown origin) by NMR spectrometry.
Target sequence in this assay (P01112 whole entry): as above
Series [4] can be described thus: Inhibition of cell proliferation in mouse NIH/3T3 cells after 24 to 72 hrs by coulter counting analysis. It counts as cell-based. To be noted: nih3t3.
A short description of series [5]: Inhibition of cell proliferation in mouse NIH/3T3 cells at 100 uM after 24 to 72 hrs by coulter counting analysis. It counts as cell-based. To be noted: nih3t3, 100 µM.
The subject of series [6] is NIH3T3. Put plainly: Inhibition of cell proliferation in mouse NIH/3T3 cells expressing K-RAS after 24 to 72 hrs by coulter counting analysis. Type of series: functional, cell-based.
For series [7], the species on record is Mus musculus. Put plainly: Inhibition of Ras in mouse NIHRAS cells assessed as reduction of phosphorylated MAPK level at 250 uM after 24 hrs by sandwich ELISA. Type of series: cell-based. A general note: In an ELISA, binding on a coated surface is turned into a signal by an enzyme label.
The target of series [8] is T1, GTPase HRas. The series is described as follows: Inhibition of recombinant N-terminal His-tagged H-Ras (unknown origin) expressed in Escherichia coli M15 assessed as inhibition of human Sos1-mediated nucleotide exchange after 300 secs by luminescence spectrophotometry.

With `OC[C@H]1O[C@@H](O[C@H]2[C@H](O)[C@@H](O)C(N(Cc3ccc(O)c(O)c3)OCc3ccccc3)O[C@@H]2CO)[C@H](O)[C@@H](O)[C@H]1O` (stereo partly drawn), in series [1], the IC50 was 100 µM. In addition, the inhibition result in series [2] was “Active”. Moreover, binding in series [3] was characterised by a dissociation constant (Kd) of 7.8 µM. Besides, in series [4], the “inhibition (INH)” value is given as “Dose-dependent effect”. Besides, the Activity result in series [5] is recorded as “Toxic”. The inhibition entry in series [6] is “Dose-dependent effect”.

As to `CC(=O)N[C@H]1C(N(Cc2ccc(O)c(O)c2)OCc2ccccc2)O[C@H](CO)[C@@H](O)[C@@H]1O` (stereo partly drawn), the values for the IC50 in series [1] and in series [8] were 80 µM and 122 µM, respectively. The inhibition result in series [2] and in series [7] was “Active” in each case. Further, the affinity in series [3], expressed as Kd, was 5.5 µM. Moreover, in series [4], the “inhibition (INH)” value was “Dose-dependent effect”. Moreover, the Activity entry in series [5] is given as “Toxic”. For the same molecule, the inhibition entry in series [8] and in series [6] was “Dose-dependent effect” throughout.

On to `Oc1ccc(CNOCc2ccccc2)cc1O`, for which the IC50 in series [1] stood at 320 µM. Further, the equilibrium dissociation constant (Kd) in series [3] amounted to 21.4 µM.

Take `OC[C@H]1OC(N(Cc2ccc(O)c(O)c2)OCc2ccccc2)[C@H](O)[C@@H](O)[C@@H]1O` (stereo partly drawn): in series [1], the IC50 was 80 µM. In series [2], the inhibition entry was “Active”. The Kd in series [3] came to 9.5 µM. Also, in series [4], the “inhibition (INH)” value was “Dose-dependent effect”. For the same molecule, the Activity entry in series [5] is listed as “Toxic”. Further, the inhibition entry in series [6] is “Dose-dependent effect”.

(Values after ChEMBL document CHEMBL3217553, “Binding properties and biological characterization of new sugar-derived Ras ligands” (Medchemcomm, 2011).)
